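The concentration for 50% growth inhibition is given as GI50. The concentration for full growth arrest is given as TGI.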
Key:
Test in all cases: DTP human tumour cell line panel, 384-well format
[1] = tested on: MDA-MB-231 breast
[2] = tested on: KM12 colon
[3] = tested on: SNB-75 CNS
[4] = tested on: SW-620 colon
[5] = tested on: NCI-H460 NSCLC
[6] = tested on: UACC-62 melanoma
[7] = tested on: SN12C renal
[8] = tested on: M14 melanoma
[9] = tested on: LOX IMVI melanoma
[10] = tested on: U251 glioblastoma
[11] = tested on: NCI-H322M lung
[12] = tested on: HCC-2998 colon
[13] = tested on: HL-60(TB) leukemia
[14] = tested on: SF-295 CNS
[15] = tested on: UO-31 renal
[16] = tested on: K-562 leukemia
[17] = tested on: SNB-19 CNS
[18] = tested on: SK-MEL-28 melanoma
[19] = tested on: OVCAR-8 ovarian
[20] = tested on: NCI/ADR-RES ovarian
[21] = tested on: UACC-257 melanoma
[22] = tested on: CCRF-CEM leukemia
[23] = tested on: SF-268 CNS
[24] = tested on: HOP-62 NSCLC
[25] = tested on: HS 578T breast
[26] = tested on: PC-3 prostate
[27] = tested on: MALME-3M melanoma
[28] = tested on: T-47D breast
[29] = tested on: RPMI-8226 leukemia
[30] = tested on: COLO 205 colon
[31] = tested on: NCI-H226 lung
[32] = tested on: SK-OV-3 ovarian
[33] = tested on: CAKI-1 renal
[34] = tested on: IGROV1 ovarian
[35] = tested on: MDA-MB-468 breast
[36] = tested on: TK-10 renal
[37] = tested on: A549 NSCLC
[38] = tested on: OVCAR-3 ovarian
[39] = tested on: NCI-H522 lung
[40] = tested on: ACHN renal
[41] = tested on: EKVX NSCLC
[42] = tested on: A498 renal
[43] = tested on: DU-145 prostate
[44] = tested on: MDA-MB-435 melanoma
[45] = tested on: SR leukemia
[46] = tested on: OVCAR-4 ovarian
[47] = tested on: RXF 393 renal
[48] = tested on: SK-MEL-5 melanoma
[49] = tested on: 786-0 renal
[50] = tested on: MCF7 breast
[51] = tested on: HCT-116 colon
[52] = tested on: SF-539 CNS
[53] = tested on: NCI-H23 lung
[54] = tested on: HOP-92 NSCLC
[55] = tested on: MOLT-4 leukemia
[56] = tested on: HT29 colon
[57] = tested on: HCT-15 colon
[58] = tested on: BT-549 breast

Compound: CNCc1ccc(-c2cc(-c3nc(-c4ccc(S(=O)(=O)C(C)C)cc4)cnc3N)on2)cc1
- GI50 [1]: 1.21 µM
- TGI [1]: 2730 nM
- GI50 [2]: 131 nM
- TGI [2]: 559 nM
- GI50 [3]: 1.15 µM
- TGI [3]: 2380 nM
- GI50 [4]: 267 nM
- TGI [4]: 1260 nM
- GI50 [5]: 0.0575 µM
- TGI [5]: 0.334 µM
- GI50 [6]: 1060 nM
- TGI [6]: 2240 nM
- GI50 [7]: 1.29 µM
- TGI [7]: 5.49 µM
- GI50 [8]: 318 nM
- TGI [8]: 1140 nM
- GI50 [9]: 0.303 µM
- TGI [9]: 1.4 µM
- GI50 [10]: 0.46 µM
- TGI [10]: 1660 nM
- GI50 [11]: 0.139 µM
- TGI [11]: 1180 nM
- GI50 [12]: 0.0295 µM
- TGI [12]: 0.192 µM
- GI50 [13]: 114 nM
- TGI [13]: 248 nM
- GI50 [14]: 1.06 µM
- TGI [14]: 4.1 µM
- GI50 [15]: 0.285 µM
- TGI [15]: 1400 nM
- GI50 [16]: 0.25 µM
- TGI [16]: 1170 nM
- GI50 [17]: 1.13 µM
- TGI [17]: 2480 nM
- GI50 [18]: 1420 nM
- TGI [18]: 2730 nM
- GI50 [19]: 0.534 µM
- TGI [19]: 1770 nM
- GI50 [20]: 1.31 µM
- TGI [20]: 2.68 µM
- GI50 [21]: 0.248 µM
- TGI [21]: 0.87 µM
- GI50 [22]: 0.0409 µM
- TGI [22]: 0.161 µM
- GI50 [23]: 781 nM
- TGI [23]: 2060 nM
- GI50 [24]: 0.291 µM
- TGI [24]: 1.46 µM
- GI50 [25]: 0.138 µM
- TGI [25]: 0.454 µM
- GI50 [26]: 506 nM
- TGI [26]: 2040 nM
- GI50 [27]: 0.307 µM
- TGI [27]: 1.33 µM
- GI50 [28]: 10.4 µM
- TGI [28]: 22.2 µM
- GI50 [29]: 132 nM
- TGI [29]: 0.355 µM
- GI50 [30]: 1.04 µM
- TGI [30]: 6.58 µM
- GI50 [31]: 3.07 µM
- TGI [31]: 9.52 µM
- GI50 [32]: 0.242 µM
- TGI [32]: 1360 nM
- GI50 [33]: 0.735 µM
- TGI [33]: 2050 nM
- GI50 [34]: 0.211 µM
- TGI [34]: 1340 nM
- GI50 [35]: 0.57 µM
- TGI [35]: 1.85 µM
- GI50 [36]: 0.0573 µM
- TGI [36]: 347 nM
- GI50 [37]: 0.427 µM
- TGI [37]: 1810 nM
- GI50 [38]: 0.145 µM
- TGI [38]: 1.5 µM
- GI50 [39]: 6.61 µM
- TGI [39]: 20.2 µM
- GI50 [40]: 0.151 µM
- TGI [40]: 1240 nM
- GI50 [41]: 1 µM
- TGI [41]: 2230 nM
- GI50 [42]: 0.0422 µM
- TGI [42]: 0.183 µM
- GI50 [43]: 0.25 µM
- TGI [43]: 1320 nM
- GI50 [44]: 0.484 µM
- TGI [44]: 1600 nM
- TGI [45]: 0.0185 µM
- GI50 [46]: 0.313 µM
- TGI [46]: 1310 nM
- GI50 [47]: 0.216 µM
- TGI [47]: 0.791 µM
- GI50 [48]: 1.32 µM
- TGI [48]: 2.6 µM
- GI50 [49]: 0.15 µM
- TGI [49]: 486 nM
- GI50 [50]: 0.105 µM
- TGI [50]: 1.25 µM
- GI50 [51]: 0.242 µM
- TGI [51]: 1.33 µM
- GI50 [52]: 0.135 µM
- TGI [52]: 0.31 µM
- GI50 [53]: 0.162 µM
- TGI [53]: 0.916 µM
- GI50 [54]: 0.336 µM
- TGI [54]: 1.41 µM
- GI50 [55]: 0.0663 µM
- TGI [55]: 0.204 µM
- GI50 [56]: 0.324 µM
- TGI [56]: 1060 nM
- GI50 [57]: 0.127 µM
- TGI [57]: 315 nM
- GI50 [58]: 0.173 µM
- TGI [58]: 0.489 µM

Compound: CCCCS(=O)c1sc2nc(-c3cccs3)cc(-c3ccccc3)c2c1N (configuration not stated)
- GI50 [1]: 25.7 µM
- TGI [1]: > 100000 nM
- GI50 [2]: > 100000 nM
- TGI [2]: > 100000 nM
- GI50 [3]: 27.2 µM
- TGI [3]: > 100000 nM
- GI50 [4]: > 100000 nM
- TGI [4]: > 100000 nM
- GI50 [5]: 13.7 µM
- TGI [5]: 32.4 µM
- GI50 [6]: > 100000 nM
- TGI [6]: > 100000 nM
- GI50 [7]: 65 µM
- TGI [7]: > 100 µM
- GI50 [8]: > 100000 nM
- TGI [8]: > 100000 nM
- GI50 [9]: 16.7 µM
- TGI [9]: 38.1 µM
- GI50 [10]: 23.2 µM
- TGI [10]: > 100000 nM
- GI50 [11]: 32.2 µM
- TGI [11]: > 100000 nM
- GI50 [12]: 27.2 µM
- TGI [12]: 63.3 µM
- GI50 [14]: 19.6 µM
- TGI [14]: 96.5 µM
- GI50 [15]: 29.2 µM
- TGI [15]: > 100000 nM
- GI50 [16]: 8.47 µM
- TGI [16]: > 100000 nM
- GI50 [17]: 32.5 µM
- TGI [17]: > 100000 nM
- GI50 [18]: > 100000 nM
- TGI [18]: > 100000 nM
- GI50 [19]: 25.2 µM
- TGI [19]: > 100000 nM
- GI50 [20]: 14 µM
- TGI [20]: 59 µM
- GI50 [21]: 26.9 µM
- TGI [21]: 84.1 µM
- GI50 [22]: 11.4 µM
- TGI [22]: 28.3 µM
- GI50 [23]: > 100000 nM
- TGI [23]: > 100000 nM
- GI50 [24]: 29.9 µM
- TGI [24]: 93.8 µM
- GI50 [25]: 14.1 µM
- TGI [25]: 76.2 µM
- GI50 [27]: 28.8 µM
- TGI [27]: 73.2 µM
- GI50 [28]: 19.2 µM
- TGI [28]: > 100 µM
- GI50 [29]: 4380 nM
- TGI [29]: 14.6 µM
- GI50 [30]: 34.4 µM
- TGI [30]: > 100 µM
- GI50 [31]: 25.7 µM
- TGI [31]: 74.6 µM
- GI50 [32]: 31.9 µM
- TGI [32]: > 100000 nM
- GI50 [33]: 31.9 µM
- TGI [33]: > 100000 nM
- GI50 [34]: 38.6 µM
- TGI [34]: > 100000 nM
- GI50 [35]: 15 µM
- TGI [35]: 42.7 µM
- GI50 [36]: 29.5 µM
- TGI [36]: > 100000 nM
- GI50 [37]: 12.5 µM
- TGI [37]: > 100000 nM
- GI50 [38]: 16.7 µM
- TGI [38]: 43.5 µM
- GI50 [39]: 17 µM
- TGI [39]: 90.5 µM
- GI50 [40]: 31.7 µM
- TGI [40]: > 100000 nM
- GI50 [41]: 27.8 µM
- TGI [41]: > 100000 nM
- GI50 [42]: 21.2 µM
- TGI [42]: 79.2 µM
- GI50 [43]: 28.7 µM
- TGI [43]: > 100000 nM
- GI50 [44]: 36.1 µM
- TGI [44]: > 100000 nM
- GI50 [45]: 3.73 µM
- TGI [45]: 8.78 µM
- GI50 [46]: 30.4 µM
- TGI [46]: > 100000 nM
- GI50 [47]: 20.4 µM
- TGI [47]: 95.5 µM
- GI50 [48]: 13.8 µM
- TGI [48]: 26.8 µM
- GI50 [49]: 27.9 µM
- TGI [49]: > 100000 nM
- GI50 [50]: 13.5 µM
- TGI [50]: 90.7 µM
- GI50 [51]: 26 µM
- TGI [51]: 91 µM
- GI50 [52]: 23.9 µM
- TGI [52]: 52.2 µM
- GI50 [53]: 21.4 µM
- TGI [53]: 97.9 µM
- GI50 [54]: 26.4 µM
- TGI [54]: 99.2 µM
- GI50 [55]: 6.07 µM
- TGI [55]: 18.1 µM
- GI50 [56]: 26 µM
- TGI [56]: > 100000 nM
- GI50 [57]: 19.1 µM
- TGI [57]: > 100000 nM
- GI50 [58]: 16.5 µM
- TGI [58]: 45.6 µM

From PubChem BioAssay (NCI)
